From ChEMBL document CHEMBL1132794, “Structure-based design of six novel classes of nonpeptide antagonists of the bradykinin B2 receptor” (Bioorg Med Chem Lett, 2000) come the findings set out here.

SMILES strings stand for the structures.

For one assay, the target named is T1, B2 bradykinin receptor (Homo sapiens, UniProt P30411).
T1 sequence (P30411 whole entry): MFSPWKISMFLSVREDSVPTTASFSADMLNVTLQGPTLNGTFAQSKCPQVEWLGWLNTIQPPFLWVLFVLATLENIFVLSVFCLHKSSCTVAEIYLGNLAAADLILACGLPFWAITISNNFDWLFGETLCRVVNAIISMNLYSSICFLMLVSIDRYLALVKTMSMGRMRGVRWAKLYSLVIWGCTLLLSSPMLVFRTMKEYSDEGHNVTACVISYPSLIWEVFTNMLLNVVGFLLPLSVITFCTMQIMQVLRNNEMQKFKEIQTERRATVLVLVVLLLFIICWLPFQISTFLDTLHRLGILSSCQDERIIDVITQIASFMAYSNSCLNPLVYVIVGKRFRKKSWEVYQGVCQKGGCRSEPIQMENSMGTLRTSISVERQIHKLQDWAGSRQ
Briefly: Compound was assayed for binding against the human Bradykinin receptor B2 expressed in CHO cells; 0.2-16. Format: cell-based.
Conditions: not given; call rule not given here
In general, Kd refers to the free concentration of one partner at which half of the binding sites on the other are occupied at equilibrium, for simple one-to-one binding. `N=C(N)NCCC[C@@H]1NC(=O)N2C3CCCCC3C[C@H]2C(=O)N2Cc3ccccc3C[C@@H]2C(=O)NCC[C@@H](NC(=O)CCc2ccccc2)C(=O)CCNC1=O` (stereo partly specified) gave a Kd of 0.2 µM.

Staying with this assay, now noted: cho.
Compound `NCCCC[C@@H]1NC(=O)[C@H](c2ccccc2)NC(=O)[C@H](CNC(=O)Cc2ccccc2)NC(=O)[C@H]2Cc3ccccc3CN2C(=O)[C@@H]2CC3CCCCC3N2C(=O)[C@H](CN)NC1=O` (stereo partly specified) gave a Kd of 0.2 µM.

Another assay has as its target T1, B2 bradykinin receptor. Briefly: Compound was assayed for binding against the human Bradykinin receptor B2 expressed in CHO cells.
Conditions: not given
Format: cell-based.
Turning to `NCc1cccc(Cn2ccc3c2C(=O)C(Cc2ccccc2)(Cc2ccccc2)CC3)c1`, the Kd turned out to be 7.6 µM.

Take `NCCCN1C(=O)C(CN)N=C(c2ccccc2)c2cc(N(Cc3ccccc3)Cc3ccccc3)ccc21` (stereo unspecified): the affinity, expressed as Kd, was 4.3 µM.

Take `NCc1ccc(CNC(=O)[C@@H](CN)n2cccc2CNC(=O)CC2CCCCC2)cc1`: the Kd was 101 µM.

`NC(N)=NC[C@H]1C[C@@H](OCc2ccccc2)CN1C(=O)c1ccc2ccccc2c1` showed a Kd of 15 µM.

Consider `N=C(N)NCC1N=C(c2ccccc2)c2cc(N(Cc3ccccc3)Cc3ccccc3)ccc2N(CCCN=C(N)N)C1=O` (stereo unspecified), for which the affinity, expressed as Kd, was 12 µM.

On to `NCc1ccc(CNC(=O)[C@@H](CN)n2cccc2CNC(=O)C(c2ccccc2)C2CCCCC2)cc1` (stereo partly specified), for which the Kd was found to be 17 µM.

`CCCCc1ccnc([C@H](CC2CCCCC2)NC(=O)c2ccc(CN)cc2)c1` returned a Kd of 7.4 µM.

`N=C(N)NCCC1N=C(c2ccccc2)c2cc(N(Cc3ccccc3)Cc3ccccc3)ccc2N(CCCN=C(N)N)C1=O` (stereo unspecified) registered a dissociation constant Kd of 4.5 µM.

As to `NCCCC[C@H](C(=O)NCc1ccc(CN)cc1)n1cccc1C(=O)NC(Cc1ccccc1)c1ccccc1` (stereo partly specified), the Kd turned out to be 28 µM.

As for `NCCCN1C(=O)C(CCN)N=C(c2ccccc2)c2cc(N(Cc3ccccc3)Cc3ccccc3)ccc21` (stereo unspecified), the Kd was found to be 15 µM.

`CCCCc1ccnc([C@H](CC2CCCCC2)NC(=O)CCCCN)c1` showed a Kd of 62 µM.

`CCCCc1ccnc([C@H](CC2CCCCC2)NC(=O)c2ccc(CNC(=N)N)cc2)c1`: binding was characterised by a dissociation constant (Kd) of 5 µM.

For `CCCCC1(CCCC)Oc2cccc(NC(=O)c3ccc(CN)cc3)c2O1`, binding was characterised by a dissociation constant (Kd) of 13 µM.

`NC[C@H]1C[C@@H](OCc2ccccc2)CN1C(=O)c1ccc2ccccc2c1` yielded a Kd of 66 µM.

With `CCCCc1ccnc([C@H](CC2CCCCC2)NC(=O)CCCCN(CCCC)CCCC)c1`, binding was put at a Kd of 23 µM.

`CCCCC1(CCCC)Oc2cccc(N(CCCN)C(=O)c3ccc(CN)cc3)c2O1`: binding was put at a Kd of 14 µM.

Another assay addresses T1, B2 bradykinin receptor. Briefly: Compound was assayed for binding against the human Bradykinin receptor B2 expressed in CHO cells; NA means Inactive. Format: cell-based.
Conditions: not given
`NCCCC[C@H](C(=O)NCc1ccc(CN)cc1)n1cccc1C(=O)NCCc1ccccc1`: the Kd entry is given as “Not Active”.

In the case of `N=C(N)NC[C@H]1C[C@@H](OCc2ccccc2)CN1C(=O)c1ccccc1`, the Kd result was “Not Active”.

On to `NC[C@H]1C[C@@H](OCc2ccccc2)CN1C(=O)c1ccccc1`, for which the Kd result was “Not Active”.
